Assays:
[1] = test system: A549 cells; assay: Annexin V staining and FACS analysis of paclitaxel-induced apoptosis; type: cell-based, human; conditions: transfection with miR-135a mimic, 100 nM paclitaxel; P<0.001
Experimental: (§1) The paclitaxel-resistant cell lines MES-SA^DX5 and A549^TR were transfected with a scrambled non-targeting miRNA (control) and an miR-135a mimic (mimic), respectively. Cells were subsequently treated with 100 nM paclitaxel and cell viability was assessed using the MTT assay (FIGS. 2A, 2B). The percentage of apoptotic cells was assessed by Annexin V-staining and FACS analysis (FIGS. 2C, 2D). Values are presented as percent cell survival in paclitaxel-treated cells relative to untreated cells. *P<0.05, **P<0.001 as determined by Wilcoxon's rank sum test.
Annexin V/7-amino-actinomycin D labeling was performed according to the manufacturer's instructions (BD Pharmingen™, San Diego, Calif., USA, 559 763) and samples were analyzed by flow cytometry. Briefly, cells were treated for 48-72 h with either vehicle or 100 nM paclitaxel. Cells were trypsinized and washed with phosphate-buffered saline before resuspending in assay binding buffer. Annexin V and 7-amino-actinomycin labeling was performed at room temperature for 15 min before analysis by flow cytometry (BD FACScan™, San Jose, Calif., USA).

[2] = test system: APC 3′-UTR; assay: Luciferase reporter fused to APC 3'-UTR; type: cell-based, human; conditions: 30 nM miR-135a mimic
Excerpt: FIGS. 3A-3E are a series of bar graphs showing that miR-135a modulates APC expression in paclitaxel-resistant cancer cells. MES-SA (FIG. 3A) or A549 (FIG. 3B) cells were transfected with a luciferase reporter construct fused to APC 3′-UTR or a control luciferase reporter vector with a random 3′-UTR (random UTR). Subsequently, cells were cotransfected with either an miR-135a mimic or a non-targeting miRNA control (control miRNA). Values are shown as the percent of luciferase expression compared with the control. *P<0.01 as determined by Wilcoxon's rank sum test. FIG. 3C: Endogenous APC mRNA expression was quantified by RT-PCR analysis in A549, A549^TR, MES-SA and MES-SA^DX5 cells. Bars represent mean and s.e.m. from duplicate experiments. NS: not significant, **P<0.001 as determined by Wilcoxon's rank sum test. In addition, APC protein expression was examined by western blotting (bottom panel). […]
Double-stranded RNA oligos representing a mature sequence that mimics endogenous miR-135a, anti-miR-135a designed to inhibit endogenous miR-135a, and anti-miR negative control were all obtained from Ambion™ and were transfected into cell lines at ˜50% confluence at 30 nM concentration with siLentFect (Bio-Rad™). […] The next day, luciferase activity was measured using the Dual-Glo® Luciferase assay system (Promega™, Madison, Wis.). […]

[3] = test system: MES-SA cells; assay: MTT cell viability assay, paclitaxel response; type: cell-based, human; conditions: after transfection with miR-135a mimic, 100 nM paclitaxel
Experimental: as §1
FIGS. 4A-4E are a series of micrographs and line graphs showing that miR-135a-mediated APC suppression contributes to paclitaxel resistance. MES-SA and A549 cells were mock-transfected (mock), transfected with a scrambled siRNA (siControl) or with siRNA directed against APC (siAPC). […] Transfected A549 (FIG. 4B) and MES-SA (FIG. 4C) cells were treated with paclitaxel and viability was assessed using the MTT assay. […] (FIG. 4E) Both A549-shCON and -shAPC cells were treated with paclitaxel and cell viability was measured using the MTT assay. […]
(§2) Cell growth inhibition was determined by a 3-(4,5-dimethylthiazol-2-yl)-2,5-diphenyltetrazolium (MTT) bromide assay. […] Absorbance was determined using a 96-well SpectraMax plate reader (Molecular Devices, Sunnyvale, Calif.) at 560 nm and 650 nm (background). […]

[4] = test system: T824.1 cell line; assay: MTT cell viability assay on in vivo established paclitaxel-sensitive cell line; type: cell-based; conditions: paclitaxel-sensitive cells transfected with miR-135a mimic
Experimental: (FIG. 7A). The parental A549 cells, a cell line that became refractory during in vivo treatment with paclitaxel (T20.2 round 1) and the same cell line established after yet another round of in vivo paclitaxel treatment (T20.2 reinjection) were treated with paclitaxel and cell viability was assessed using the MTT assay. Represented are average LC50±s.e.m. determined by MTT assay for parental A549 cells (white boxes), **P<0.001, *P<0.05 as determined by Wilcoxon's rank sum test for T20.2 round 1 cells (hatched boxes) and for T20.2 re-injection cells (filled boxes). (FIG. 7B) The expression of miR-135a was examined in these cells by qRT-PCR. *P<0.05 as determined by Wilcoxon's rank sum test. (FIG. 7C) The expression of miR-135a was examined in the cell lines established in vivo. The correlation between paclitaxel response and miR-135a expression was calculated using the Spearman's rank test. […] Subsequently, cells were treated with the indicated concentrations of paclitaxel and cell viability was assessed using the MTT assay. […]
as §2

## miR-135a mimic: double-stranded RNA oligos representing a mature sequence that mimics endogenous miR-135a, from Ambion (sense GTATTGGGCGCCTGGTCACC; antisense CGGGAAGATGGTGATGG; listed as DNA, chemistry not given here)
[1]
  paclitaxel-induced apoptosis (annexin-positive cells): decreased paclitaxel-induced apoptosis
[2]; A549 cells
  targeting of APC 3' untranslated region (luciferase expression): targeted the 3′ untranslated region of APC
[2]; MES-SA cells, P=0.029
  targeting of APC 3' untranslated region (luciferase expression): targeted the 3′ untranslated region of APC
[3]
  cell survival: 43.6%
[4]
  paclitaxel-induced cytotoxicity: suppressed paclitaxel-induced cytotoxicity

Reference: patent publication US9687467B2, “Diagnosis and treatment of taxane-resistant cancers” (Children's Medical Center Corporation, priority 2011, dated 2017)
